Drawing on patent US20240415819A1, “MACROCYCLIC COMPOUNDS AS PROTEASOME SUBUNIT BETA TYPE-5 INHIBITORS” (Lead Discovery Center GmbH, priority 2021, published 2024), this text covers IC50 for 15 compounds.

Where only a bound is given, the exact number is not on record here.

For experiment [1], the system named is B-cells isolated from PBMC's. The experiment can be described thus: Chymotrypsin-like ProteasomeGlo assay in B-cells isolated from PBMCs. It is filed as cell-based, human. Conditions: Homo sapiens; B-cells isolated from PBMC's; read-out: Pglo B-Cell. A digest of the protocol:
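Human B-cells were negatively isolated from buffy-coat PBMCs by density gradient, RBC lysis and Miltenyi magnetic separation. Cells were plated and compounds added by acoustic transfer after 1:100 dilution, with DMSO controls and medium-only wells. Chymotrypsin-like proteasome activity was read by luminescent ProteasomeGlo to derive IC50.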

Experiment [2] deals with B cell. The experiment is described as follows: B cell diff. (Table 4, method not given). It is filed as cell-based. The following applies: B-cell.
The subject of experiment [3] is Karpas cells. The experiment can be described thus: Glo assay of Karpas cells (Table 3; ProteasomeGlo plating scheme). The class given is cell-based. The following applies: read-out: Pglo Karpas. In outline:
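Compound treatment lasts 105 minutes at 37° C. under 5% CO2. Suc-LLVY-Glo substrate premixed with detection reagent (60 min at room temperature) is then added directly to the cells, and luminescence after 10-15 min in the dark gives the IC50 in nM.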

The test system of experiment [4] is PBMC. The experiment is described as follows: PBMC IL 17 stim. (Table 4, method not given). The class given is cell-based.

As for `Cc1ccc2cc1CNC(=O)[C@H](CCc1ccccc1)NC(=O)[C@@H](Nc1nc3ccccc3[nH]1)CC(=O)N1CCCC(CCO2)C1` (stereo partly drawn) [Compound 45, (9S,12S)-12-((1H-benzo[d]imidazol-2-yl)amino)-5^4-methyl-9-phenethyl-4-oxa-7,10-diaza-1(3,1)-piperidina-5(1,3)-benzenacyclotetradecaphane-8,11,14-trione], the IC50 is 100 to 500 nM in experiment [1] and < 100 nM in experiment [2].
As to `Cc1ccc2cc1CNC(=O)[C@H](CCc1ccccc1)NC(=O)[C@@H](NS(C)(=O)=O)CC(=O)N1CCCC(CCO2)C1` (stereo partly drawn) [Compound 37, N-((9S,12S)-5^4-methyl-8,11,14-trioxo-9-phenethyl-4-oxa-7,10-diaza-1(3,1)-piperidina-5(1,3)-benzenacyclotetradecaphane-12-yl)methanesulfonamide], the IC50 in experiment [1] and in experiment [2] was < 100 nM throughout.
For `Cc1ccc2cc1CNC(=O)[C@H](CCc1ccccc1)NC(=O)[C@@H](NC(=O)c1ccncc1)CC(=O)N1CCCC(CCO2)C1` (stereo partly drawn) [Compound 42, N-((9S,12S)-5^4-methyl-8,11,14-trioxo-9-phenethyl-4-oxa-7,10-diaza-1(3,1)-piperidina-5(1,3)-benzenacyclotetradecaphane-12-yl)isonicotinamide], the IC50 in experiment [1] and in experiment [2] was < 100 nM in each case.
Regarding `Cc1ccc2cc1CNC(=O)[C@H](CCc1ccccc1)NC(=O)[C@@H](Nc1ccccn1)CC(=O)N1CCCC(CCO2)C1` (stereo partly drawn) [Compound 36, (9S,12S)-5^4-methyl-9-phenethyl-12-(pyridin-2-ylamino)-4-oxa-7,10-diaza-1(3,1)-piperidina-5(1,3)-benzenacyclotetradecaphane-8,11,14-trione], the IC50 in experiment [1] was 100 to 500 nM; in experiment [2] it was < 100 nM.
As for `Cc1ccc2cc1CNC(=O)[C@H](CCc1ccccc1)NC(=O)[C@@H](NC(=O)CN1CCOCC1)CC(=O)N1CCCC(CCO2)C1` (stereo partly drawn) [Compound 88, N-((9S,12S)-5^4-methyl-8,11,14-trioxo-9-phenethyl-4-oxa-7,10-diaza-1(3,1)-piperidina-5(1,3)-benzenacyclotetradecaphane-12-yl)-2-morpholinoacetamide], the IC50 in experiment [3] and in experiment [1] was < 100 nM in each case.
As to `COc1ccc(CC(=O)N[C@H]2CC(=O)N3CCCC(CCOc4ccc(C)c(c4)CNC(=O)[C@H](CCc4ccccc4)NC2=O)C3)cc1` (stereo partly drawn) [Compound 83, 2-(4-methoxyphenyl)-N-((9S,12S)-5^4-methyl-8,11,14-trioxo-9-phenethyl-4-oxa-7,10-diaza-1(3,1)-piperidina-5(1,3)-benzenacyclotetradecaphane-12-yl)acetamide], the IC50 in experiment [3] and in experiment [1] was < 100 nM throughout.
In the case of `Cc1ccc2cc1CNC(=O)[C@H](CCc1ccccc1)NC(=O)[C@@H](N)CC(=O)N1CCCC(CCO2)C1` (stereo partly drawn) [Compound 8, (9S,12S)-12-amino-5^4-methyl-9-phenethyl-4-oxa-7,10-diaza-1(3,1)-piperidina-5(1,3)-benzenacyclotetradecaphane-8,11,14-trione], the IC50 in experiment [3] and in experiment [1] was < 100 nM throughout.
For `Cc1ccc2cc1CNC(=O)[C@H](CCc1ccccc1)NC(=O)[C@@H](NC(=O)C1CCCc3ccccc31)CC(=O)N1CCCC(CCO2)C1` (stereo partly drawn) [Compound 82, N-((9S,12S)-5^4-methyl-8,11,14-trioxo-9-phenethyl-4-oxa-7,10-diaza-1(3,1)-piperidina-5(1,3)-benzenacyclotetradecaphane-12-yl)-1,2,3,4-tetrahydronaphthalene-1-carboxamide], the IC50 in experiment [3] and in experiment [1] was < 100 nM in each case.
Consider `Cc1ccc2cc1CNC(=O)[C@H](CCc1ccccc1)NC(=O)[C@@H](NC(=O)[C@@H](C)c1ccccc1)CC(=O)N1CCCC(CCO2)C1` (stereo partly drawn) [Compound 81, (2S)-N-((9S,12S)-5^4-methyl-8,11,14-trioxo-9-phenethyl-4-oxa-7,10-diaza-1(3,1)-piperidina-5(1,3)-benzenacyclotetradecaphane-12-yl)-2-phenylpropanamide], for which the IC50 in experiment [3] and in experiment [1] was < 100 nM throughout.
`Cc1ccc2cc1CNC(=O)[C@H](CCc1ccccc1)NC(=O)[C@@H](N1C(=O)CCC1=O)CC(=O)N1CCCC(CCO2)C1` (stereo partly drawn) [Compound 43, (9S,12S)-12-(2,5-dioxopyrrolidin-1-yl)-5^4-methyl-9-phenethyl-4-oxa-7,10-diaza-1(3,1)-piperidina-5(1,3)-benzenacyclotetradecaphane-8,11,14-trione]: the IC50 in experiment [1] and in experiment [2] was < 100 nM in each case.
Take `Cc1ccc2cc1CNC(=O)[C@H](CCc1ccccc1)NC(=O)CCCCC(=O)N1CCCC(CCO2)C1` (stereo partly drawn) [Compound 16, (9S)-5^4-methyl-9-phenethyl-4-oxa-7,10-diaza-1(3,1)-piperidina-5(1,3)-benzenacyclohexadecaphane-8,11,16-trione]: the IC50 in experiment [1], in experiment [2] and in experiment [4] was < 100 nM throughout.
For the compound `Cc1ccc2cc1CNC(=O)[C@H](CCc1ccccc1)NC(=O)CCC(=O)N1CCCC(CCO2)C1` (stereo partly drawn) [Compound 13, (9S)-5^4-methyl-9-phenethyl-4-oxa-7,10-diaza-1(3,1)-piperidina-5(1,3)-benzenacyclotetradecaphane-8,11,14-trione], the IC50 is < 100 nM in experiment [1] and 100 to 500 nM in experiment [2].
Turning to `Cc1ccc2cc1CNC(=O)[C@H](Cc1c[nH]c3ccccc13)NC(=O)CCC(=O)N1CCCC(CCO2)C1` (stereo partly drawn) [Compound 77, (9S)-9-((1H-indol-3-yl)methyl)-5^4-methyl-4-oxa-7,10-diaza-1(3,1)-piperidina-5(1,3)-benzenacyclotetradecaphane-8,11,14-trione], the IC50 in experiment [3] and in experiment [1] was 100 to 500 nM in each case.
As for `COc1ccc(CC(=O)N[C@H]2CC(=O)N3CCCC(CCOc4ccc(C)c(c4)CNC(=O)[C@H](CCc4ccccc4)NC2=O)C3)cc1OC` (stereo partly drawn) [Compound 63, 2-(3,4-dimethoxyphenyl)-N-((9S,12S)-5^4-methyl-8,11,14-trioxo-9-phenethyl-4-oxa-7,10-diaza-1(3,1)-piperidina-5(1,3)-benzenacyclotetradecaphane-12-yl)acetamide], the IC50 in experiment [3], in experiment [1] and in experiment [4] was < 100 nM throughout.
Turning to `Cc1ccc2cc1CNC(=O)[C@H](C)NC(=O)CCC(=O)N1CCCC(CCO2)C1` (stereo partly drawn) [Compound 78, (9S)-5^4,9-dimethyl-4-oxa-7,10-diaza-1(3,1)-piperidina-5(1,3)-benzenacyclotetradecaphane-8,11,14-trione], the IC50 in experiment [3] and in experiment [1] was 100 to 500 nM throughout.
